Data taken from US12397059B2, “Compounds and methods for the treatment and prevention of fibrotic disease states and cancer” (Purdue Research Foundation, priority 2019, dated 2025).

Test system: BM-induced experimental pulmonary fibrosis in mice
Method: Studies were also performed to determine if macrophages in pulmonary fibrotic lungs might be specifically targeted with folate-linked drugs in vivo. […] (The BM model is widely regarded to be helpful in terms of enabling mechanistic investigations relevant to fibrogenesis in an in vivo context.)
More specifically, eight-week-old C57BL6 male mice from Charles River (average weight 22 g to 25 g) were housed under pathogen-free conditions at room temperature (22° C.) under a 12 hours light-dark cycle. Mice were placed on a folate deficient chow (Envigo Teklad Global Rat Food Pellets) for 1 week prior to the BM or PBS instillation. Fresh water and folate-deficient diet were freely available. All animal procedures were approved by the Purdue Animal Care and Use Committee in accordance with National Institute of Health guidelines.
Thereafter, the mice were anesthetized with ketamine/xylazine and the necks of the mice were shaved using hair remover lotion and then sterilized with 70% alcohol. A small incision was made on the neck to visualize the trachea. Mice were positioned at a 75-degree angle and injected intratracheally with 100 μL sterile PBS or BM (Cayman Chemicals, Ann Arbor, MI; #13877) dissolved in PBS (0.75 mg/kg) using a 1 cc syringe with 26 G needle. Body weights were monitored every other day throughout the experiment.
Lobes of the right lung collected above were weighed, placed in a pressure-tight vial (Supelco Inc., Bellefonte, PA; #27003), and hydrolyzed with 6N HCl (10 ml/g, v/w) in a sand bath at 120° C. for 3.5 hours. The hydrolyzed solution was cooled at 4° C. for 15 min and transferred to a 1.5 ml Eppendorf tube prior to centrifugation at 12,000 rcf for 15 min at 4° C. Supernatant was carefully collected, aliquoted and used for hydroxyproline (HYP) analysis.
For the subsequent HYP analysis, 10 μl of sample was transferred into a 96-well plate and neutralized with 10 μl of 5.3 M sodium hydroxide solution. Isopropanol (40 μl) was then added to each well followed by 20 μl of oxidation buffer and the mixture was incubated on a shaker at room temperature for 5 min. Analytical reagent (260 μl) was added, and the plate was incubated on a shaker at room temperature for 30 seconds and incubated immediately at 60° C. for 25 min. The absorbance was measured at 560 nm (A560) within 15 min. All reagents were prepared according to a previously reported protocol.
For histological analysis of the lung sections, fixed lungs (see above) were embedded in paraffin, sectioned and stained with hematoxylin-eosin (H&E), Masson's trichrome or F3 (anti-mouse FRβ antibody). Tissue sections were examined in a blinded manner by a licensed pathologist. More than 90×10^6 cells were quantified per section using Aperio-Image Scope (Leica Biosystems, Wetzlar, DE).
For this, BM-treated mice were intravenously injected every other day beginning on day 10 with either vehicle (3% DMSO in PBS) or Compound 1B (see FIG. 8A). […] In BM-induced experimental pulmonary fibrosis in mice, inflammation is known to persist for about 9-10 days after BM installation. Because, inflammation to fibrosis switch happens in this model approximately day 9 to day 14, and profibrotic markers start appearing at about day 10, dosing began on day 10 (FIG. 8A).
Two doses were given every other day till day 21. The individual doses on a day are separated by 6 hours to prevent any “tolerance” to TLR agonists. Mice were then sacrificed on day 21 and subjected immediately to bronchoalveolar lavage followed by resection of the lungs for immunohistochemistry and quantitation of collagen and hydroxyproline.

CCCCc1nc2c(N)nc3ccccc3c2n1CC(C)(C)OC(=O)OCCSSCC(NC(=O)CCC(NC(=O)c1ccc(NCc2cnc3nc(N)[nH]c(=O)c3n2)cc1)C(=O)O)C(=O)O (centres unmarked) [Compound 1B] was tested, and the “lung histology with increasing dose” value (1, 3, 10 nmol) was “lung histology improved”, the “order of efficacy on lung hydroxyproline content” value (day 21) was 10 nmol/mouse>3 nmol/mouse>1 nmol/mouse>0 nmol/mouse and the “anti-fibrotic response, lung sections stained DAPI, anti-F4/80, anti-CD206” value (differences between treated groups) was “robust anti-fibrotic response”. The “collagen stain, Masson's trichrome” value (tail vein injection) was “strongly suppressed” and the “lung histology, H&E staining” value (treated beginning on day 10) was “lung architecture that resembles that of healthy mice”.
